Consider 60 molecules from patent publication US6743804B2, “Quinoline derivatives as NK3 antagonists” (SmithKline Beecham S p.A., priority 1996, dated 2004).

Structures are written as SMILES. Where a name gives a salt, the structure may show the parent alone.

For the first series, the target named is T1, guinea-pig NK3 receptors (Cavia porcellus, UniProt P30098).
T1 sequence (P30098 1-440): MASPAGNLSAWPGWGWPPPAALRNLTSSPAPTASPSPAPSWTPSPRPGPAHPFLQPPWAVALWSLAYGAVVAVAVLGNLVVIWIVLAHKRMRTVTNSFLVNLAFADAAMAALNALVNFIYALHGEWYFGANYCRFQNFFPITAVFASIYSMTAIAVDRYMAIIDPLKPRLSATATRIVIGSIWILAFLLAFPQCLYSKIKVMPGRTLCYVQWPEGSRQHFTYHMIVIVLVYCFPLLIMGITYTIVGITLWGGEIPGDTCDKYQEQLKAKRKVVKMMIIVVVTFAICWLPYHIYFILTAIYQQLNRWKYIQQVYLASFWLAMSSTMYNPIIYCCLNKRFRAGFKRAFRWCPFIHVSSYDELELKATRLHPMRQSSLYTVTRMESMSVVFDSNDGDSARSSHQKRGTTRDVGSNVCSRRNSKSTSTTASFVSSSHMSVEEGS
Description: Radioligand binding to guinea-pig NK3 receptors (guinea-pig cortex membranes, displacement of [3H]-Senktide or [125I]-[Me-Phe7]-NKB).
Description: The activity of the compounds of the present invention, as NK3 ligands, is determined by their ability to inhibit the binding of the radiolabelled NK3 ligands, [^125I]-[Me-Phe^7]-NKB or [^3H]-Senktide, to guinea-pig and human NK3 receptors (Renzertti et al, 1991, Neuropeptide, 18, 104-114; Buell et al, 1992, FEBS, 299(1), 90-95; Chung et al, 1994, Biochem. Biophys. Res. Commun., 198(3), 967-972). The binding assays utilized allow the determination of the concentration of the individual compound required to reduce by 50% the [^125I]-[Me-Phe^7]-NKB and [^3H]-Senktide specific binding to NK3 receptor in equilibrium conditions (IC50). Binding assays provide for each compound tested a mean IC50 value of 2-5 separate experiments performed in duplicate or triplicate. […] The NK3-antagonist activity of the compounds of the present invention is determined by their ability to inhibit senktide-induced contraction of the guinea-pig ileum (Maggi et al, 1990, Br. J. Pharmacol., 101, 996-1000) and rabbit isolated iris sphincter muscle (Hall et al., 1991, Eur. J. Pharmacol., 199, 9-14) and human NK3 receptors-mediated Ca^++ mobilization (Mochizuki et al, 1994, J. Biol. Chem., 269, 9651-9658). Guinea-pig and rabbit in-vitro functional assays provide for each compound tested a mean KB value of 3-8 separate experiments, where KB is the concentration of the individual compound required to produce a 2-fold rightward shift in the concentration-response curve of senktide. Human receptor functional assay allows the determination of the concentration of the individual compound required to reduce by 50% (IC50 values) the Ca^++ mobilization induced by the agonist NKB.
By Ki is commonly meant the equilibrium dissociation constant of an inhibitor or competing ligand from its target. On to `CC[C@H](NC(=O)c1c(C)c(-c2ccccc2)nc2ccccc12)c1ccccc1` [Example 22], for which the Ki was 5.6 nM. `CC[C@H](NC(=O)c1c(OC)c(-c2ccccc2)nc2ccccc12)c1ccccc1` [Example 47] gave a Ki of 8.8 nM. For `CCc1c(-c2ccccc2)nc2ccccc2c1C(=O)N[C@@H](CC)c1ccccc1` [Example 48], the Ki worked out at 12 nM.

Test system in the next series: not given
Experiment: not given
By melting point is commonly meant the temperature, or range, at which the solid turns liquid. With `COC(=O)[C@H](NC(=O)c1cc(-c2ccccc2)nc2ccccc12)c1ccc(O)cc1` (as salt: HCl) [Example 83, (R)-N-[α-(methoxycarbonyl)-4-hydroxybenzyl]-2-phenylquinoline-4-carboxamide], the melting point was 140 °C (dec.).

Turning to `COC(=O)[C@H](NC(=O)c1cc(-c2ccccc2)nc2ccccc12)C1=CCC=CC1` [Example 16], the melting point lay within 120 to 122 °C. In turn, `C[C@H](O)[C@H](NC(=O)c1cc(-c2ccccc2)nc2ccccc12)c1ccccc1` [Example 17, (R,S)-N-[α-(1-hydroxyethyl)benzyl]-2-phenylquinoline-4-carboxamide] gave a melting point of 204 to 205 °C.

In turn, `CCC(NC(=O)c1c(OC)c(-c2ccccc2)nc2ccccc12)c1ccccc1` (centres unmarked) [Example 18] displayed a melting point of 164 to 165 °C. In turn, `CCCCc1c(-c2ccccc2)nc2ccccc2c1C(=O)NC(CC)c1ccccc1` (centres unmarked) [Example 19] came in with a melting point of 147 to 150 °C. In turn, `COC(=O)C(NC(=O)c1c2c(nc3ccccc13)-c1ccccc1CCC2)c1ccccc1` (centres unmarked) [Example 20] had a melting point of 186 to 188 °C. The same measure, in the same setting: as for `COC(=O)C(NC(=O)c1cc(-c2ccccc2OC)nc2ccccc12)c1ccccc1` (centres unmarked) [Example 24], the figure is 124 to 125 °C. `CCC(NC(=O)c1c(-c2ccccc2)c(-c2ccccc2)nc2ccccc12)c1ccccc1` (centres unmarked) [Example 25]: the melting point lay in the range of 198 to 200 °C. On the same count and under the same terms, as for `COC(=O)C(NC(=O)c1cc(-c2ccccc2F)nc2ccccc12)c1ccccc1` (centres unmarked) [Example 26], the figure is 146 to 147 °C. The molecule `CCC(NC(=O)c1cc(-c2ccccc2)nc2ccccc12)c1ccc(Cl)c(Cl)c1` (centres unmarked) [Example 27] registered a melting point of 193 to 194 °C.

`O=C(NC(CO)c1ccccc1)c1cc(-c2ccccc2)nc2ccccc12` (centres unmarked) [Example 28] gave a melting point of 117 to 119 °C.

`COC(=O)C(NC(=O)c1c(C)c(-c2ccccc2)nc2ccccc12)c1ccccc1` (centres unmarked) [Example 30] yielded a melting point of 180 to 181 °C. The molecule `COC(=O)C(NC(=O)c1cc(-c2ccccc2)nc2cc(Cl)ccc12)c1ccccc1` (centres unmarked) [Example 32] registered a melting point of 180 to 183 °C.

`COC(=O)C(NC(=O)c1cc(-c2ccccc2)nc2ccc(C)cc12)c1ccccc1` (centres unmarked) [Example 33]: the melting point lay in the range of 179 to 181 °C. The same measure, in the same setting: as for `COCC(NC(=O)c1cc(-c2ccccc2)nc2ccccc12)c1ccccc1` (centres unmarked) [Example 34], the figure is 144 to 145 °C. On the same count and under the same terms, as for `COC(=O)C(NC(=O)c1cc(-c2ccccc2)nc2ccc(Cl)cc12)c1ccccc1` (centres unmarked) [Example 35], the figure is 197 to 199 °C; as for `CCc1c(-c2ccccc2)nc2ccccc2c1C(=O)NC(C(=O)OC)c1ccccc1` (centres unmarked) [Example 36], 156 to 157 °C; as for `CCCC(NC(=O)c1cc(-c2ccccc2)nc2ccccc12)c1ccccc1` (centres unmarked) [Example 37], 149 to 150 °C. Same read-out and setting: as for `CCc1c(-c2ccccc2)nc2ccccc2c1C(=O)NC(CC)c1ccccc1` (centres unmarked) [Example 38], the figure is 158 to 159 °C; as for `CCC(NC(=O)c1c(N2C(=O)c3ccccc3C2=O)c(-c2ccccc2)nc2ccccc12)c1ccccc1` (centres unmarked) [Example 39], 201 to 202 °C; as for `CCCc1c(-c2ccccc2)nc2ccccc2c1C(=O)NC(CC)c1ccccc1` (centres unmarked) [Example 40], 149 to 151 °C. The molecule `CC[C@H](NC(=O)c1c(C)c(-c2ccc(Br)cc2)nc2ccc(Br)cc12)c1ccccc1` [Example 41] gave a melting point of 230 to 231 °C. `CC[C@H](NC(=O)c1c(C)c(-c2ccccc2)nc2ccc(Br)cc12)c1ccccc1` [Example 42] returned a melting point of 179 to 180 °C. Take `COC(=O)C(NC(=O)c1cc(-c2ccccc2)nc2ccc(OC)cc12)c1ccccc1` (centres unmarked) [Example 43]: the melting point was in the range of 209 to 211 °C. In the case of `COC(=O)C(NC(=O)c1cc(-c2cc3ccccc3o2)nc2ccccc12)c1ccccc1` (centres unmarked) [Example 44], the melting point lay within 240 to 241 °C. On the same count and under the same terms, as for `O=C(NC(Cc1ccccc1)c1ccccc1)c1cc(-c2ccccc2)nc2ccccc12` (centres unmarked) [Example 45], the figure is 194 to 196 °C; as for `O=C(NC(c1ccccc1)C(F)(F)F)c1cc(-c2ccccc2)nc2ccccc12` (centres unmarked) [Example 46], 180 to 181 °C; as for `CC[C@H](NC(=O)c1c(OC)c(-c2ccccc2)nc2ccccc12)c1ccccc1` [Example 47], 132 to 134 °C.

`CCc1c(-c2ccccc2)nc2ccccc2c1C(=O)N[C@@H](CC)c1ccccc1` [Example 48] yielded a melting point of 118 to 120 °C. Take `CCC(NC(=O)c1cc(-c2ccccc2)nc2ccccc12)c1ccc(Cl)cc1` (centres unmarked) [Example 49]: the melting point lay within 177 to 178 °C.

The molecule `COC(=O)C(c1ccccc1)N(C)C(=O)c1cc(-c2ccccc2)nc2ccccc12` (centres unmarked) [Example 50] registered a melting point of 128 to 129 °C. In turn, `COC(=O)C(NC(=O)c1cc(-c2ccsc2)nc2ccccc12)c1ccccc1` (centres unmarked) [Example 51] registered a melting point of 169 to 171 °C.

`COC(=O)C(NC(=O)c1c2c(nc3ccccc13)-c1ccccc1CC2)c1ccccc1` (centres unmarked) [Example 52]: the melting point lay within 217 to 219 °C. Consider `COC(=O)C(NC(=O)c1cc(-c2ccc[nH]2)nc2ccccc12)c1ccccc1` (centres unmarked) [Example 53], for which the melting point fell in the range of 181 to 182 °C. Regarding `COC(=O)C(NC(=O)c1cc(-c2nccs2)nc2ccccc12)c1ccccc1` (centres unmarked) [Example 54], the melting point was in the range of 209 to 211 °C. Turning to `CCCCC(NC(=O)c1cc(-c2ccccc2)nc2ccccc12)c1ccccc1` (centres unmarked) [Example 56], the melting point lay within 155 to 156 °C. Take `COC(=O)C(NC(=O)c1cc(-c2ccc(C)cc2)nc2ccccc12)c1ccccc1` (centres unmarked) [Example 57]: the melting point is 172 to 174 °C.

On to `COC(=O)C(NC(=O)c1cc(-c2ccccc2C)nc2ccccc12)c1ccccc1` (centres unmarked) [Example 59], for which the melting point fell in the range of 180 to 182 °C. `COC(=O)C(NC(=O)c1cc(-c2ccc(OC)cc2)nc2ccccc12)c1ccccc1` (centres unmarked) [Example 60] registered a melting point of 182 to 183 °C. The molecule `O=C(NC1(c2ccccc2)CCCC1)c1cc(-c2ccccc2)nc2ccccc12` [Example 61] displayed a melting point of 164 to 165 °C. `COC(=O)C(NC(=O)c1cc(-c2ccc(O)cc2)nc2ccccc12)c1ccccc1` (centres unmarked) [Example 62] had a melting point of 226 to 227 °C. Regarding `COC(=O)C(NC(=O)c1cc(-c2ccc3c(c2)OCO3)nc2ccccc12)c1ccccc1` (centres unmarked) [Example 63], the melting point was in the range of 186 to 187 °C.

On to `CC(C)(NC(=O)c1cc(-c2ccccc2)nc2ccccc12)c1ccccc1` [Example 64], for which the melting point was in the range of 173 to 174 °C.

For `CCC(NC(=O)c1cc(-c2ccccc2)nc2ccccc12)c1ccc(C)cc1` (centres unmarked) [Example 65], the melting point lay within 160 to 162 °C. Molecule `COC(=O)C(NC(=O)c1cc(-c2cc[nH]c2)nc2ccccc12)c1ccccc1` (centres unmarked) [Example 66] displayed a melting point of 202 to 204 °C. Take `COC(=O)C(NC(=O)c1cc(-c2ccc(Cl)c(Cl)c2)nc2ccccc12)c1ccccc1` (centres unmarked) [Example 67]: the melting point was in the range of 164 to 165 °C. As for `NC[C@H](NC(=O)c1cc(-c2ccccc2)nc2ccccc12)c1ccccc1` [Example 68], the melting point was in the range of 139 to 141 °C. Same read-out and setting: as for `CC[C@H](NC(=O)c1c(Cl)c(-c2ccccc2)nc2ccccc12)c1ccccc1` [Example 70], the figure is 137 to 139 °C; as for `CC[C@H](NC(=O)c1c(Br)c(-c2ccccc2)nc2ccccc12)c1ccccc1` [Example 71], 119 to 122 °C.

As to `CC(C)C(NC(=O)c1cc(-c2ccccc2)nc2ccccc12)c1ccccc1` (centres unmarked) [Example 72], the melting point lay within 165 to 166 °C. Still for that read-out and setting: as for `COC(=O)C(NC(=O)c1cc(-c2ccccc2)nc2ccc(F)cc12)c1ccccc1` (centres unmarked) [Example 75], the figure is 174 to 176 °C; as for `COC(=O)C(NC(=O)c1cc(C2CCCCC2)nc2ccccc12)c1ccccc1` (centres unmarked) [Example 76], 151 to 153 °C; as for `COC(=O)C(NC(=O)c1cc(-c2cccc(Cl)c2)nc2ccccc12)c1ccccc1` (centres unmarked) [Example 77], 161 to 163 °C.

The molecule `COC(=O)C(NC(=O)c1cc(-c2ccccc2Cl)nc2ccccc12)c1ccccc1` (centres unmarked) [Example 78] came in with a melting point of 175 to 178 °C. Turning to `COC(=O)C(NC(=O)c1cc(-c2ccccc2)nc2c(OC(C)=O)cccc12)c1ccccc1` (centres unmarked) [Example 80], the melting point fell in the range of 193 to 194 °C. Molecule `COC(=O)C(NC(=O)c1cc(-c2ccccc2)nc2c(O)cccc12)c1ccccc1` (centres unmarked) [Example 81] gave a melting point of 178 to 180 °C. As to `COC(=O)C(NC(=O)c1cc(-c2ccc(Cl)cc2Cl)nc2ccccc12)c1ccccc1` (centres unmarked) [Example 82], the melting point fell in the range of 142 to 143 °C. The molecule `O=C(NC(c1ccccc1)c1ccccc1)c1cc(-c2ccccc2)nc2ccccc12` [Example 84] registered a melting point of 182 to 184 °C. On the same count and under the same terms, as for `COC(=O)[C@H](NC(=O)c1c(O)c(-c2ccccc2)nc2ccccc12)c1ccccc1` [Example 87], the figure is 125 to 127 °C.
